According to patent publication US6395905B1, “Tetrahydroindazole derivatives as ligands for GABA-A α 5 receptors” (Merck Sharp & Dohme Ltd., priority 1999, dated 2002):

| melting point | SMILES |
| --- | --- |
| 244 °C (dec.) | O=C(Nc1ccccc1)c1n[nH]c2c1C(=O)CCC2 [Example 1, 4-Oxo-4,5,6,7-tetrahydro-1H-indazole-3-carboxylic acid phenylamide] |
| 250 °C (dec.) | O=C(Nc1ccccn1)c1n[nH]c2c1C(=O)CCC2 [Example 3, 4-Oxo-4,5,6,7-tetrahydro-1H-indazole-3-carboxylic acid pyridin-2-ylamide] |
| 250 °C (dec.) | NCCc1ccc(NC(=O)c2n[nH]c3c2C(=O)CCC3)cc1 [Example 5, 4-Oxo-4,5,6,7-tetrahydro-1H-indazole-3-carboxylic acid 4-(2-aminoethyl)phenylamide] |
